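Exposure lasted 48 hours, with cells grown in 96-well plates and compounds tested at five concentrations. GI50 = concentration required for 50% inhibition of growth.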 Activity calls are given as the source filed them. No stated cut-off is given here; in the data, active = GI50 up to about 1.1 µM and inactive = higher.

Experimental findings from ChEMBL document CHEMBL1201862, “PubChem BioAssay data set” (2004) are described below.

What all share (assay): NCI-60 cell line screen, 48 h
Experiment [1] relates to U-251.
Experiment [2] has as its system COLO 205.
The subject of experiment [3] is RPMI-8226.
Experiment [4] concerns SK-MEL-5.
Experiment [5] concerns HCT-116.
Experiment [6] concerns CCRF-CEM.
In experiment [7] the test system is CAKI-1.
Experiment [8] concerns RXF 393.
In experiment [9] the test system is Malme-3M.
For experiment [10], the system named is HCT-15.
The subject of experiment [11] is PC-3.
Experiment [12] deals with NCI/ADR-RES.
Experiment [13] concerns NCI-H226.
In experiment [14] the test system is UO-31.
Experiment [15] relates to MDA-MB-435.
Experiment [16] relates to NCI-H522.
Experiment [17] relates to OVCAR-3.
Experiment [18] relates to A498.
Experiment [19] relates to K562.
The subject of experiment [20] is HCC 2998.

Take `CC(=O)OC1CCC2(C)C(=CCC3C2CCC2(C)C3CC3OC4(CCC(C)CN4)C(C)C32)C1` (stereo not given): the GI50 in experiment [1], in [2], in [3], in experiment [4], in experiment [5] and in experiment [6] was > 100 µM (inactive) throughout. Also, the GI50 is > 100 µM (inactive) in experiment [7]; > 100 µM (inactive) in experiment [8]; > 100 µM (inactive) in [9]; greater than 100 µM in [10]; > 100 µM (inactive) in experiment [11]; > 100 µM (inactive) in [12]. In addition, the GI50 in experiment [13], in experiment [14], in [15], in experiment [16], in [17] and in experiment [18] was > 100 µM (inactive) in each case. Also, in experiment [19], the GI50 is > 100 µM (inactive).

On to `COc1ccc2cc(C(=O)CCC(=O)O)ccc2c1`, for which the GI50 in experiment [1], in [2], in experiment [3], in experiment [4], in experiment [5] and in experiment [6] was > 100 µM (inactive) in each case. Besides, the GI50 in experiment [7] is > 100 µM (inactive); in [8], > 100 µM (inactive); in experiment [9] it was > 100 µM (inactive); in [10], greater than 100 µM; in [11], > 100 µM (inactive); in experiment [12] it was > 100 µM (inactive). Also, the GI50 in experiment [13], in [14], in experiment [15], in experiment [16], in [17] and in experiment [18] was > 100 µM (inactive) each time. For the same compound, the GI50 in experiment [19] was > 100 µM (inactive).

Regarding `O=C(O)/C(Cc1c[nH]nn1)=N\O`, the GI50 in experiment [1], in [2], in experiment [3], in experiment [4], in experiment [5] and in experiment [6] was > 100 µM (inactive) in each case. Moreover, the GI50 is > 100 µM (inactive) in [7]; > 100 µM (inactive) in [8]; > 100 µM (inactive) in experiment [9]; greater than 100 µM in experiment [10]; > 100 µM (inactive) in experiment [11]; > 100 µM (inactive) in experiment [12]. Moreover, the GI50 in [13], in experiment [14], in [15], in experiment [16], in experiment [17] and in experiment [18] was > 100 µM (inactive) throughout. Also, the GI50 in experiment [19] is > 100 µM (inactive).

For the compound `CN(CCCNC(=O)c1cn(C)c2c1ccc1ccccc12)CCCNC(=O)c1cn(C)c2c1ccc1ccccc12`, the GI50 in [1] was 2.4 µM (inactive); in experiment [2], 1.75 µM (inactive); in experiment [4], 1.65 µM (inactive); in experiment [5], 1.49 µM (inactive); in experiment [6] it was 2.26 µM (inactive); in experiment [7] it was 1.53 µM (inactive). Further, the GI50 is 1.65 µM (inactive) in experiment [8]; 1.73 µM in experiment [10]; 1.51 µM (inactive) in experiment [11]; 1.77 µM (inactive) in experiment [12]; 1.41 µM (inactive) in [20]; 1.66 µM (inactive) in [13]. Besides, the GI50 in experiment [14] is 1.44 µM (inactive); in experiment [15], 2.06 µM (inactive); in [17], 1.51 µM (inactive); in experiment [18] it was 14.7 µM (inactive).

As for `COc1ccc2c(c1)c(=O)c1c(NCCN(C)C)ccc3c(=O)n(CCN(C)C)c(=O)n2c31`, the GI50 in [1] is 0.0783 µM (active); in experiment [2], 0.0293 µM (active); in experiment [3], 0.0323 µM (active); in experiment [4], 0.126 µM (active); in experiment [5] it was < 0.014 µM (active); in experiment [6] it was < 0.01 µM (active). The GI50 in experiment [7] was 0.0283 µM (active); in experiment [9], 0.29 µM (active); in experiment [10], less than 0.0223 µM; in experiment [11], 0.0925 µM (active); in experiment [12], 0.109 µM (active); in [20], 0.0247 µM (active). Further, the GI50 in [13] was 0.163 µM (active); in experiment [14], 0.163 µM (active); in experiment [15] it was 0.117 µM (active); in experiment [16], 0.0762 µM (active); in experiment [17], 0.182 µM (active); in experiment [18] it was 0.211 µM (active). Further, in experiment [19], the GI50 is < 0.01 µM (active).

Turning to `Cc1ccc([S+]([O-])c2cccs2)cc1` (stereo not given), the GI50 in experiment [1], in [2], in experiment [3], in [5], in experiment [6] and in [8] was > 100 µM (inactive) throughout. Further, the GI50 is > 100 µM (inactive) in [9]; greater than 100 µM in experiment [10]; > 100 µM (inactive) in experiment [11]; > 100 µM (inactive) in experiment [12]; > 100 µM (inactive) in experiment [13]; > 100 µM (inactive) in [14]. For the same compound, the GI50 was > 100 µM (inactive) in experiment [15], > 100 µM (inactive) in experiment [17], 38.1 µM (inactive) in experiment [18] and > 100 µM (inactive) in experiment [19].

Regarding `Nc1nc2ncc(SCc3ccc(C(=O)NC(CCC(=O)O)C(=O)O)cc3)cc2c(=O)[nH]1` (stereo not given), the GI50 in experiment [1] was > 100 µM (inactive); in [2], > 100 µM (inactive); in [3], 19.4 µM (inactive); in experiment [4], > 100 µM (inactive); in experiment [5] it was > 100 µM (inactive); in [7], > 100 µM (inactive). The GI50 in [9] is > 100 µM (inactive); in experiment [10] it was greater than 100 µM; in experiment [11], > 100 µM (inactive); in [12], > 100 µM (inactive); in experiment [20], > 100 µM (inactive); in experiment [13], > 100 µM (inactive). Besides, the GI50 in [14], in experiment [15], in experiment [16], in experiment [17], in [18] and in experiment [19] was > 100 µM (inactive) throughout.

In the case of `O=S(=O)(O)c1ccc(/N=N\c2c(O)ccc3cc(Br)ccc23)cc1`, the GI50 in [1], in [2], in [3], in experiment [4], in experiment [5] and in [6] was > 100 µM (inactive) throughout. Besides, the GI50 is > 100 µM (inactive) in experiment [7]; > 100 µM (inactive) in [8]; > 100 µM (inactive) in experiment [9]; greater than 100 µM in [10]; > 100 µM (inactive) in [11]; > 100 µM (inactive) in experiment [12]. The GI50 in [14] is > 100 µM (inactive); in [15] it was > 100 µM (inactive); in experiment [16] it was > 100 µM (inactive); in experiment [17], > 100 µM (inactive); in experiment [18], > 100 µM (inactive); in experiment [19], > 10 µM (inactive).

`COC1=CC(=O)c2c(cc(COP(N)(=O)N(CCBr)CCBr)n2C)C1=O` (stereo not given): the GI50 in experiment [1] was < 0.01 µM (active); in experiment [2], 0.0242 µM (active); in [3], < 0.01 µM (active); in [4], 0.418 µM (active); in experiment [5], < 0.01 µM (active); in [6], < 0.01 µM (active). The GI50 in experiment [7] was < 0.01 µM (active); in [8], 0.0719 µM (active); in experiment [9], 0.308 µM (active); in experiment [10], 0.242 µM; in [11], 1.11 µM (active); in experiment [12], 0.184 µM (active). Further, the GI50 in experiment [13] was < 0.01 µM (active); in experiment [14] it was 0.131 µM (active); in experiment [15], 1.16 µM (inactive); in [16] it was < 0.01 µM (active); in experiment [17], 0.0822 µM (active); in experiment [18], 1.26 µM (inactive). In addition, the GI50 in [19] is 0.135 µM (active).

As to `O=C(c1cccs1)N1CCCN(C(=O)c2cccs2)C1=S`, the GI50 in experiment [1], in [2], in experiment [3], in experiment [4], in experiment [5] and in experiment [6] was > 100 µM (inactive) throughout. The GI50 in [7] was > 100 µM (inactive); in experiment [8], 36.1 µM (inactive); in experiment [9], > 100 µM (inactive); in experiment [10], greater than 100 µM; in experiment [11], > 100 µM (inactive); in experiment [12], > 100 µM (inactive). The GI50 in experiment [13], in experiment [14], in [15], in experiment [17], in experiment [18] and in [19] was > 100 µM (inactive) throughout.

For `CNc1nc(OC)c2c(n1)n(C)c[n+]2C` [HETEROMINE B], the GI50 in [1] was 45.7 µM (inactive); in experiment [2], > 100 µM (inactive); in [3], > 100 µM (inactive); in experiment [4] it was > 100 µM (inactive); in [5], > 100 µM (inactive); in [6], > 100 µM (inactive). In addition, the GI50 was > 100 µM (inactive) in [7]; > 100 µM (inactive) in [8]; > 100 µM (inactive) in experiment [9]; greater than 100 µM in experiment [10]; > 100 µM (inactive) in experiment [11]; > 100 µM (inactive) in experiment [12]. In addition, the GI50 in experiment [13] was > 100 µM (inactive); in experiment [14] it was > 100 µM (inactive); in experiment [15], > 100 µM (inactive); in experiment [16] it was 31.7 µM (inactive); in [17], 62.7 µM (inactive); in experiment [18] it was > 100 µM (inactive). Also, the GI50 in experiment [19] is > 100 µM (inactive).
